The record followed here is patent publication US20050288347A1, “Certain triazole-based compounds, compositions, and uses thereof” (priority 2004, published 2005).

Entries after “also recorded” stand apart in the source; their conditions may differ.

For one assay, the target named is protein kinase. As to the kind of experiment: HTS ATP-utilizing enzyme assay, off-chip mobility-shift format (Caliper HTS 250). The format is biochemical, human. Conditions: kinase(s) for which the compound exhibits protein kinase inhibitory activity; test compound 10 μM; active = greater than three-sigma from the mean activity of inactive compounds. The text has this:
The following procedures describe the reagent and plate preparation for a HTS of an ATP-utilizing enzyme, such as a protein kinase, run in an off-chip mobility-shift assay format. The following provides an HTS protocol for running a protein kinase HTS screen on a Caliper HTS 250 microfluidics system. The following parameters are dependent on the protein kinase used and can be determined by one skilled in the art as part of a typical assay development process. For example, the peptide substrate used can be identified from the current literature, by screening a peptide library of potential protein kinase substrates, or by other applicable means accepted in the field.
The following table provides typical screen assay parameters appropriate for a Caliper HTS 250 microfluidics system.
The reagents and buffers listed in the following table are generally applicable for developing and running an HTS screen on a human protein kinase using the Caliper HTS 250 system.
The following reagents were prepared using the previously described buffers.
A 2× Master Buffer solution was prepared by combining 200 mL of 1 M HEPES, pH 7.5, 2 mL of 10% Triton X-100, 20 mL of 10% BSA, and 778 mL of H2O.
Assays to determine the kinase inhibitory activity of chemical entities of the present disclosure were performed using a Caliper HTS 250 microfluidics device, Greiner U-bottom assay plates, a Multidrop for transfer of reagents, and Biomek FX (AMNCBM03) software. Initially, 2.4 μL of a 1 mM solution of a test compound in 100% DMSO was added to a well of the Greiner U-bottom plate. A single Greiner U-bottom plate having 24×16 wells could include multiple test compounds. […] Using the Biomek FX, 10 μL of 0.5 M EDTA was added by the span-8 to wells, indicated as 100% Control and 2.4 μL of 100% DMSO was added by the span-8 to wells, indicated as 0% Control. […] The total reaction volume in each well was 25 μL, and the concentration of the test compound was 10 μM. The assay plate was incubated for 2.5 hrs at 20° C. to 22° C. […] The inhibition of the ATP-utilizing enzyme, such as a particular protein kinase, was determined by measuring the ratio of the peptide substrate to phosphorylated product for each well of the assay plate using the Caliper HTS 250 system.
The use of three-sigma statistical limits represents a conservative method for declaring potential hits among targets. The three-sigma activity, as well as the mean population activity, can be different for each target enzyme.
Regarding `Cc1cc(NC(=O)CSc2nnc(-c3ccc(O)cc3)n2C)no1`, the Kinase result is recorded as “GSK3-β; also recorded: GSK3-α”.
The same measure, in the same setting: as for `Cn1c(SCC(N)=O)nnc1-c1ccncc1` [2-(4-methyl-5-(pyridin-4-yl)-4H-1,2,4-triazol-3-ylthio)acetamide], the entry is “AKT1”; as for `NC(=O)CSc1nnc(-c2ccc(O)cc2)n1-c1ccccc1` [2-(5-(4-hydroxyphenyl)-4-phenyl-4H-1,2,4-triazol-3-ylthio)acetamide], “GSK3-β and GSK3-α and INSR”; as for `CCn1c(CNc2ccc(C)cc2)nnc1SCC(=O)Nc1cccc(Cl)c1`, “CHEK2”.
As to `O=C(CSc1nnc(-c2ccccc2O)n1CCc1ccccc1)Nc1nnc(C(F)(F)F)s1`, the Kinase result is “AURORA-A”.
Same read-out and setting: as for `O=C(CSc1nnc(-c2ccc([N+](=O)[O-])cc2)n1/C=C/CN1CCOCC1)N1CCOCC1`, the entry is “FYN”; as for `CCOC(=O)c1c(NC(=O)CSc2nnc(-c3ccccc3O)n2-c2ccc(C)cc2)sc(C(C)=O)c1C`, “LCK”; as for `Cc1ccc(NCc2nnc(SCC(=O)Nc3cccc(O)c3)n2Cc2ccco2)c(C)c1`, “CHEK2”.
As for `COc1ccc(-n2c(SCC(=O)N3CCC(C)CC3)nnc2-c2ccccc2)cc1`, the Kinase result was “DAPK1”.
The same measure, in the same setting: then `COc1ccc(C)cc1NC(=O)CSc1nnc(-c2ccc(Br)cc2)n1-c1ccccc1`, with “SYK”; and `Cc1ccc(OCc2nnc(SCC#N)n2C)cc1` [2-(4-methyl-5-(p-tolyloxymethyl)-4H-1,2,4-triazol-3-ylthio)acetonitrile], with “CSK”; and `Cc1ccc([N+](=O)[O-])cc1NC(=O)CSc1nnc(-c2ccc(O)cc2)n1C`, with “GSK3-β; also recorded: GSK3-α”.
The same measure, in the same setting: as for `COC(=O)c1ccc(NC(=O)CSc2nnc(-c3ccccc3O)n2-c2ccccc2OC)cc1`, the entry is “AURORA-A”.
On the same count and under the same terms, as for `O=C(CSc1nnc(-c2ccc(O)cc2)n1CC1CCCO1)NCCc1ccccc1` (centres unmarked), the entry is “MSK1”.
With `CCc1nnc(NC(=O)CSc2nnc(-c3ccc(O)cc3)n2C)s1`, the Kinase entry is “GSK3-β; also recorded: GSK3-α”.
Still for that read-out and setting: then `COc1ccc(-c2nnc(SCC(=O)OCc3ccccc3)n2-c2ccc(OC)cc2)cc1` [benzyl 2-(4,5-bis(4-methoxyphenyl)-4H-1,2,4-triazol-3-ylthio)acetate], with “AKT1”; and `CCn1c(COc2cccc(C)c2)nnc1SCC(=O)N1CCCCC1`, with “FYN”; and `Cn1c(SCC(=O)O)nnc1-c1ccc(O)cc1` [2-(5-(4-hydroxyphenyl)-4-methyl-4H-1,2,4-triazol-3-ylthio)acetic acid], with “GSK3-β; also recorded: MAPKAPK-2”.
Same read-out and setting: then `CCc1ccc(OCc2nnc(SCC(=O)O)n2Cc2ccccc2)cc1` [2-(4-benzyl-5-((4-ethylphenoxy)methyl)-4H-1,2,4-triazol-3-ylthio)acetic acid], with “AKT1”; and `CCCn1c(SCC(=O)c2ccc3c(c2)OCCO3)nnc1-c1ccco1`, with “DYRK2”.
Still for that read-out and setting: as for `O=C(CSc1nnc(-c2ccncc2)n1Cc1ccco1)Nc1ccccc1`, the entry is “SRC and GSK3-α and AKT3”.
For `Cc1ccc(NCc2nnc(SCC(N)=O)n2Cc2ccco2)c(C)c1`, the Kinase result is on record as “PDGFRR-α”.
On to `CCOC(=O)CSc1nnc(-c2ccncc2)[nH]1` [ethyl 2-(5-(pyridin-4-yl)-4H-1,2,4-triazol-3-ylthio)acetate], for which the Kinase result was “CDK2-cyclinA and AURORA-A and CDK5”.
The same measure, in the same setting: then `O=C(O)CSc1nnc(-c2ccco2)n1CC1CCCO1` (centres unmarked), with “AURORA-A”; and `Cc1nnc(SCC(=O)O)[nH]1` [2-(5-methyl-4H-1,2,4-triazol-3-ylthio)acetic acid], with “GSK3-β; also recorded: GSK3-α”.
Still for that read-out and setting: as for `COC(=O)CSc1nnc(CNc2ccc(OC)cc2)n1-c1ccccc1`, the entry is “PDGFRR-α”; as for `COCCCn1c(SCC(=O)O)nnc1-c1ccc(C(C)(C)C)cc1`, “CHEK2”.
The same measure, in the same setting: as for `CC(=O)c1ccc(NC(=O)CSc2nnc(COc3ccccc3)n2-c2ccc(C)cc2)cc1`, the entry is “CHEK2”.
Turning to `CCc1ccccc1NC(=O)CSc1nnc(COc2ccc(C)cc2)n1C`, the Kinase entry is reported as “PDGFRR-α”.
On the same count and under the same terms, then `COc1ccc(-n2c(SCC#N)nnc2-c2ccc(NC(=O)c3ccccc3)cc2)cc1`, with “CHEK2 and AKT1”.
The same measure, in the same setting: then `CCOC(=O)CSc1nnc(-c2cc3ccccc3cc2O)n1C`, with “FYN”.
Still for that read-out and setting: then `O=C(CSc1nnc(Cc2ccccc2)n1Cc1ccccc1)Nc1ccccc1-c1ccccc1` [N-(biphenyl-2-yl)-2-(4,5-dibenzyl-4H-1,2,4-triazol-3-ylthio)acetamide], with “CDK2-cyclinE”.
As to `CCn1c(SCC(=O)c2cccs2)nnc1-c1ccc(O)cc1`, the Kinase result is “MSK1 and MSK2 and GSK3-β”.
The same measure, in the same setting: then `COc1ccc(-n2c(SCC(N)=O)nnc2-c2ccc(O)cc2)cc1`, with “GSK3-β; also recorded: GSK3-α”.
With `Cc1nnc(SCC(=O)Nc2cccc(Cl)c2)n1C` [N-(3-chlorophenyl)-2-(4,5-dimethyl-4H-1,2,4-triazol-3-ylthio)acetamide], the Kinase result was “DAPK1”.
Still for that read-out and setting: as for `Cc1cc(C)nc(SCc2nnc(SCC#N)n2-c2cccc(Cl)c2)n1`, the entry is “LYNA”; as for `C=C(C)Cn1c(S)nnc1-c1ccccc1OC` [5-(2-methoxyphenyl)-4-(2-methylallyl)-4H-1,2,4-triazole-3-thiol], “CDK2-cyclinE”.
On the same count and under the same terms, as for `C=CCn1c(S)nnc1COc1ccc(Cl)cc1` [4-allyl-5-((4-chlorophenoxy)methyl)-4H-1,2,4-triazole-3-thiol], the entry is “GSK3-α”.

The assay is the same for the next values; noted with them: test compound 10 μM; active = activity greater than three-sigma from the mean of the predominately inactive population for that enzyme.
Regarding `Cc1ccc(-c2nnc(CSc3nnc(-c4ccc(S(=O)(=O)N5CCOCC5)cc4)n3C)o2)cc1`, the “protein kinase against which the compound exhibits inhibitory activity (Table 3)” value was “GSK3-β; also recorded: GSK3-α”.
The same measure, in the same setting: then `Ic1cccc(CSc2nnc(-c3ccccc3)[nH]2)c1` [3-(3-iodobenzylthio)-5-phenyl-4H-1,2,4-triazole], with “AURORA-A; also recorded: c-TAK1”; and `CN(C)CCCSc1nnc(-c2cccs2)[nH]1` [N,N-dimethyl-3-(5-(thiophen-2-yl)-4H-1,2,4-triazol-3-ylthio)propan-1-amine], with “c-TAK1; also recorded: AURORA-A; also recorded: GSK3-α”.
Same read-out and setting: then `COCCCn1c(SCC(=O)NN(O)C(=O)c2ccccc2)nnc1-c1ccncc1`, with “AURORA-A”; and `Cc1ccc(C(=O)NNC(=O)CSc2nnc(Cc3ccccc3)n2Cc2ccccc2)cc1`, with “DAPK-1”; and `Cc1ccc(CSc2nnc(CSc3nc(C)cc(C)n3)n2Cc2ccco2)cc1`, with “CDK2-cyclinA”.
With `c1csc(-c2nnc(SCc3ccncc3)[nH]2)c1` [4-((5-(thiophen-2-yl)-4H-1,2,4-triazol-3-ylthio)methyl)pyridine], the “protein kinase against which the compound exhibits inhibitory activity (Table 3)” value was “DYRK2; also recorded: AURORA-A; also recorded: FLT-3”.
On the same count and under the same terms, then `O=C1c2ccccc2C(=O)N1CCSc1nnc(-c2cccc(C(F)(F)F)c2)[nH]1`, with “GSK3-β and PKA and GSK3-α”; and `C=CCCc1nnc(SCc2ccccc2)n1Cc1ccc(Cl)c(Cl)c1` [3-(benzylthio)-5-(but-3-enyl)-4-(3,4-dichlorobenzyl)-4H-1,2,4-triazole], with “AURORA-A; also recorded: c-TAK1”.
Same read-out and setting: as for `Cn1c(COc2ccccc2)nnc1SCc1cc(=O)[nH]c2ccccc12`, the entry is “GSK3a”; as for `Oc1ccc(-c2nnc(SCc3ccccc3)n2Cc2ccccc2)cc1` [4-(4-benzyl-5-(benzylthio)-4H-1,2,4-triazol-3-yl)phenol], “GSK3-β and GSK3-α and LYNA”; as for `Cc1ccc(S(=O)(=O)N(Cc2nnc(SCc3ccc(Cl)cc3Cl)n2-c2ccccc2)c2cccc(Cl)c2)cc1`, “LCK”.
Same read-out and setting: as for `CC(C)=CCSc1nnc(Cc2ccccc2)n1Cc1ccc(Cl)c(Cl)c1`, the entry is “c-TAK1”; as for `Cc1nnc(SCc2ccccc2C#N)[nH]1` [2-((5-methyl-4H-1,2,4-triazol-3-ylthio)methyl)benzonitrile], “AURORA-A; also recorded: GSK3-β; also recorded: GSK3-α”.
As to `c1csc(-c2nnc(SCCN3CCOCC3)[nH]2)c1` [4-(2-(5-(thiophen-2-yl)-4H-1,2,4-triazol-3-ylthio)ethyl)morpholine], the “protein kinase against which the compound exhibits inhibitory activity (Table 3)” value is recorded as “AURORA-A; also recorded: GSK3-β; also recorded: GSK3-α”.
